Read-outs that look alike come from different tables or passages of the source.
Columns and labels:
[1] = system: thrombus formation in whole blood; experiment: T-TAS AR chip, rivaroxaban-anticoagulated whole blood; assay type: cell-based, human; settings: 9 uM dose (a pharmacological dose)
Protocol: Rivaroxaban (sometimes herein called Riv) dose-response in whole blood was measured using T-TASR. An AR chip (Collagen+TF) was used. T-TAS® assays were performed according to Example 3. The donor platelets were used at 307 k/μL.
Thrombosomes were prepared consistent with the procedures described in U.S. Pat. No. 8,486,617 (such as, e.g., Examples 1-5) and U.S. Pat. No. 8,097,403 (such as, e.g., Examples 1-3), and rehydrated by addition of sterile water. T-TAS® assays were run according to Example 3 using 3 μM rivaroxaban and different concentrations of thrombosomes (FIG. 10A, Table 8). The ‘No Riv’ vertical line indicates the approximate occlusion time of a sample with no added rivaroxaban.

[2] = system: occlusion of Platelet Rich Plasma (PRP)
Protocol: The T-TAS® instrument was prepared for use according to the manufacturer's instructions. AR Chips (Diapharma Cat. #TC0101) and AR Chip Calcium Corn Trypsin Inhibitor (CaCTI; Diapharma Cat. #TR0101) were warmed to room temperature. […] The sample was loaded and run on the T-TAS® according to the manufacturer's instructions.
The effect of cangrelor and ticagrelor on occlusion time of Platelet Rich Plasma (PRP) with and without FDPDs was assessed using the T-TAS® assay. The concentrations of the agents were as follows: cangrelor at 1 μM, ticagrelor at 500 ng/mL, FDPDs at 150 k/μL, and ADP at 2 μM. […] The number of trials per each assay is listed as the “(n=_)” values.

[3] = cited from earlier work
NOD-SCID mice = experiment: Tail snip bleeding time in clopidogrel-treated mice; assay type: in vivo, mouse; settings: clopidogrel 5 mg/kg for 3 days, untreated 758.6+/−623.4
Protocol: Mice were treated with clopidogrel at 5 mg/kg for 3 days. The mice were anesthetized, the tail end was snipped off at 1 mm diameter and submerged in warm saline and time to clot recorded. Animals were syringe injected, into a vein or artery, with saline or 1.6×10^9/kg of FDPDs, at the same time the tail was snipped, and the tail snip trial commenced. The time from tail snip to tail stop bleeding was recorded by visual inspection of cessation of blood loss.

[4] = system: New Zealand White Rabbits; experiment: Ear bleed time in clopidogrel-treated rabbits; assay type: in vivo, rabbit; settings: clopidogrel 23 mg/kg for 5 days, untreated 87.1+/−18.2
Protocol: Rabbits were treated with clopidogrel at 23 mg/kg for 5 days. The rabbits were anesthetized, the ear was bled and time to clot recorded. Animals were treated, injected into a vein or artery, with saline or 1.6×10^9/kg of human FDPDs, at the same time the ear was bled, and the ear bleed trial commenced. The time from ear bleed to stop bleeding was recorded by visual inspection.

[5] = system: thrombin generation in platelet rich plasma; experiment: Thrombin generation assay in dabigatran-treated PRP; assay type: cell-based, human; settings: dabigatran (100 ng/mL), PRP reagent; 18.89 untreated
Protocol: • (1) Open CAT software; set up instrument; and prepare PRP reagent (including Tissue Factor and some phospholipids), calibrator, and fluoro-buffer according to manufacturer guidelines. • (2) Thaw warfarin or control plasma in 37° C. water bath for 5 minutes. • (3) Rehydrate thrombosomes with cell culture grade water for 10 minutes then dilute with Control Buffer to double target concentration. • (4) For each sample, combine 1:1 volumes of Control Buffer with or without thrombosomes and plasma. • (5) Using a multichannel pipette, add 20 μL of PRP reagent to each well. • (6) Add 80 μL of sample per well.

[6] = system: thrombus formation in GK PPP; experiment: T-TAS AR chip, George King Platelet Poor Plasma with or without GPRP; assay type: biochemical, human; settings: GK PPP + 1 mM GPRP (No Tsomes)
Protocol: In the Total Thrombus-formation Analysis System (T-TAS®, FUJIMORI KOGYO CO., LTD), the sample is forced through collagen-coated microchannels using mineral oil. Changes in pressure are used to assess thrombus formation. The Occlusion Start Time is time it takes to reach Δ10 kPa, and the Occlusion Time=time it takes to each Δ80 kPa using an AR chip (Zacros Item No, TC0101).
The effect of GPRP (1 mM) on occlusion activity was also assayed.

[7] = system: time to clot in pooled normal plasma; experiment: Activated clotting time (ACT), heparin and protamine in pooled normal plasma; assay type: biochemical, human; settings: heparin titration
Protocol: This experiment assessed how clinical proportions of Heparin and Protamine affect FDPD function. FDPDs were prepared according to the procedure in Example 18. An Activating Clotting Time (ACT) assay was performed to measure time to clot and TGA was performed to measure thrombin generation. An initial Heparin titration run was performed using ACT to find the minimum Heparin dose needed to reach abnormal clot time.
Activated clotting time was measured using pooled normal plasma with heparin (H) and protamine (P) as labeled on the x-axis; ½ P, P, and 3/2 P represent protamine doses of 4, 8, and 12 μg/ml, respectively. FDPDs, (referred to as “Tsomes” in FIG. 33) were added at 10, 25 or 50 K/μl. […] “K” in the legend stands for 10^3 FDPDS. All samples were run in duplicate. N=2. The experiment was repeated on separate days to improve statistical relevance.

[8] = ADP (2 μM) stimulated PRP, cangrelor at 1 μM (n=4) or ticagrelor at 500 ng/mL (n=5), PRP alone 19.5±1.5

## O=C(NC[C@H]1CN(c2ccc(N3CCOCC3=O)cc2)C(=O)O1)c1ccc(Cl)s1 [Rivaroxaban]
[1]
  occlusion and thrombus formation: inhibits occlusion but not all thrombus formation

## CC(=O)Oc1ccccc1C(=O)O [aspirin, Acetylsalicylic acid]
[2]; PRP at 30K/μL, aspirin at 500 μM, PRP alone 25:56
  occlusion time: > 30 min
[3]; single 500 mg dose IV
  peak concentration: 500 µM
[3]; single 500 mg dose orally
  peak concentration: 44 µM

## CSCCNc1nc(SCCC(F)(F)F)nc2c1ncn2[C@@H]1O[C@H](COP(=O)(O)OP(=O)(O)C(Cl)(Cl)P(=O)(O)O)[C@@H](O)[C@H]1O [cangrelor]
[2]; [8]
  occlusion time: 28.0 ± 3.0 min

## COC(=O)[C@H](c1ccccc1Cl)N1CCc2sccc2C1 [clopidogrel]
NOD-SCID mice
  bleed time: 1661 ± 257.9 s
[4]
  bleed time: 206.8 ± 104.2 s

## [H]/N=C(/N)c1ccc(NCc2nc3cc(C(=O)N(CCC(=O)O)c4ccccn4)ccc3n2C)cc1 [dabigatran]
[5]
  Time to peak: 34.67 min

## CCCSc1nc(N[C@@H]2C[C@H]2c2ccc(F)c(F)c2)c2nnn([C@@H]3C[C@H](OCCO)[C@@H](O)[C@H]3O)c2n1 [ticagrelor]
[2]; [8]
  occlusion time: 28.0 ± 3.0 min

## GPRP
[6]
  Area Under Curve: 52.43
  Occlusion Speed: 0 kPa/min

## Heparin
[7]
  minimum Heparin dose needed to reach abnormal clot formation: 0.8 U/mL
